The source made the active and inactive calls. The rule behind the calls is not given here.
Key:
[1] = target: T1, ALK tyrosine kinase receptor (Homo sapiens, UniProt Q9UM73); test: Inhibition of ALK phosphorylation in human NCI-H2228 cells assessed as phosphorylated ALK level at 10 nmol/L measured after 4 hrs by Western blot analysis relative to control; type: cell-based; parameters: scale not given: the % may be the effect or the level left
Target sequence in this assay (Q9UM73 19-1620 limits assumed): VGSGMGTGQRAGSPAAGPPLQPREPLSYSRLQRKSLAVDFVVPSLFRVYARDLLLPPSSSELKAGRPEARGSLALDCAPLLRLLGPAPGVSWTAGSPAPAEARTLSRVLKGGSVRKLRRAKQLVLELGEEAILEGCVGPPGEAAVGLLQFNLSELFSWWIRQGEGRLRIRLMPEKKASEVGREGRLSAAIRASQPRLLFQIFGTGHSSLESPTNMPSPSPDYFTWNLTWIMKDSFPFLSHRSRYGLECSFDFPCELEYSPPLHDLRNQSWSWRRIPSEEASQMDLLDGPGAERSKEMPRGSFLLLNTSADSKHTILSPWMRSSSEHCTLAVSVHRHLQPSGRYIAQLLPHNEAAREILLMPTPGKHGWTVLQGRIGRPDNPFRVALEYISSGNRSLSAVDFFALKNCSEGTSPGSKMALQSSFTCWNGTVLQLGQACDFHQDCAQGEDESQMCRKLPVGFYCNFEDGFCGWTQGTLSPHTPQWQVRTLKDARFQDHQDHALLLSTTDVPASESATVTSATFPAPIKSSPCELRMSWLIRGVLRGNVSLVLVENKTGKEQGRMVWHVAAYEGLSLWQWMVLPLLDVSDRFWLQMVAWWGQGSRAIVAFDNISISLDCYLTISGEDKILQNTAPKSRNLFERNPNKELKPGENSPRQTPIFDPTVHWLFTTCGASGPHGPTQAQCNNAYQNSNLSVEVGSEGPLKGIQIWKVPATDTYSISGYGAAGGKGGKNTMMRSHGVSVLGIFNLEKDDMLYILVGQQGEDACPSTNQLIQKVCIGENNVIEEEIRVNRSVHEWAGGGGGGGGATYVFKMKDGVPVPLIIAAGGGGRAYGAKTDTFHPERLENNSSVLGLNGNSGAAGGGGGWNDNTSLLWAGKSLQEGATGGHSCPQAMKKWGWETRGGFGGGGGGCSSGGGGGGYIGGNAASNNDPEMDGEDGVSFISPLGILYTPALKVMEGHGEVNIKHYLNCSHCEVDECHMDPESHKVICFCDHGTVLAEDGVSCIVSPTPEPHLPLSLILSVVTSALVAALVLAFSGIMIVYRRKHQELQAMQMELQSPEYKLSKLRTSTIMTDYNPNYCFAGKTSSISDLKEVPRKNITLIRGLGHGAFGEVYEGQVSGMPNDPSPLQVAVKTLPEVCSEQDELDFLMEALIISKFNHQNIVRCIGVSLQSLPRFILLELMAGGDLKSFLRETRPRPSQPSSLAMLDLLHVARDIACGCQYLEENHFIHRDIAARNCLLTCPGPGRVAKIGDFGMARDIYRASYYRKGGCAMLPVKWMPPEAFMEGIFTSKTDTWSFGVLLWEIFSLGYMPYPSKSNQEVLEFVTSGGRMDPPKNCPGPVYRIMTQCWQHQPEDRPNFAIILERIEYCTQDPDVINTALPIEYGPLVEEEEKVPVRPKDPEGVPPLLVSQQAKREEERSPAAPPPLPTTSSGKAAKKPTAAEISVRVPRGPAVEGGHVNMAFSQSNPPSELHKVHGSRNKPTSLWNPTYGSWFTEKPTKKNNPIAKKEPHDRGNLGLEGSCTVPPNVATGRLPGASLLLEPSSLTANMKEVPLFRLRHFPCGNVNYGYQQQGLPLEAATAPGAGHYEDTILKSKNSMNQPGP

[2] = target: T1, ALK tyrosine kinase receptor; test: Inhibition of ALK phosphorylation in human NCI-H2228 cells assessed as phosphorylated ALK level at 1000 nmol/L measured after 4 hrs by Western blot analysis relative to control; type: cell-based; parameters: scale not given: the % may be the effect or the level left
Target sequence in this assay (Q9UM73 19-1620 limits assumed): as above

[3] = target: T1, ALK tyrosine kinase receptor; test: Inhibition of ALK in human NCI-H2228 cells assessed as reduction in AKT phosphorylation by measuring phosphorylated AKT level at 100 nmol/L measured after 4 hrs by Western blot analysis relative to control; type: cell-based; parameters: scale not given: the % may be the effect or the level left
Target sequence in this assay (Q9UM73 19-1620 limits assumed): as above

[4] = target: T1, ALK tyrosine kinase receptor; test: Inhibition of ALK in human NCI-H2228 cells assessed as reduction in ERK phosphorylation by measuring phosphorylated ERK level at 10 nmol/L measured after 4 hrs by Western blot analysis relative to control; type: cell-based; parameters: scale not given: the % may be the effect or the level left
Target sequence in this assay (Q9UM73 19-1620 limits assumed): as above

[5] = target: T1, ALK tyrosine kinase receptor; test: Inhibition of ALK in human NCI-H2228 cells assessed as reduction in ERK phosphorylation by measuring phosphorylated ERK level at 100 nmol/L measured after 4 hrs by Western blot analysis relative to control; type: cell-based; parameters: scale not given: the % may be the effect or the level left
Target sequence in this assay (Q9UM73 19-1620 limits assumed): as above

[6] = target: T1, ALK tyrosine kinase receptor; test: Inhibition of ALK in human NCI-H2228 cells assessed as reduction in STAT3 phosphorylation by measuring phosphorylated STAT3 level at 10 nmol/L measured after 4 hrs by Western blot analysis relative to control; type: cell-based; parameters: scale not given: the % may be the effect or the level left
Target sequence in this assay (Q9UM73 19-1620 limits assumed): as above

[7] = target: T1, ALK tyrosine kinase receptor; test: Inhibition of ALK in human NCI-H2228 cells assessed as reduction in STAT3 phosphorylation by measuring phosphorylated STAT3 level at 100 nmol/L measured after 4 hrs by Western blot analysis relative to control; type: cell-based; parameters: scale not given: the % may be the effect or the level left
[8] = target: T1, ALK tyrosine kinase receptor
[9] = target: ALK tyrosine kinase receptor (Homo sapiens, UniProt Q9UM73, F1174L)
[10] = target: ALK tyrosine kinase receptor (Homo sapiens, UniProt Q9UM73, R1275Q)
[11] = In vivo inhibition of ALK autophosphorylation in human NCI-H2228 cell xenografted NOD.CB17-Prkdcscid/J mouse assessed as phosphorylated ALK level at 10 mg/kg, po administered as single dose measured after 4 hrs by immunoblotting method relative to control; type: functional; parameters: scale not given: the % may be the effect or the level left
NCI-H2228 [12] = test: Antitumor activity against human NCI-H2228 cells xenografted in NOD.CB17-Prkdcscid/J mouse assessed as tumor growth inhibition at 1 mg/kg, po administered once daily for 2 weeks relative to control; type: functional; details: NCI-H2228, 336 h, read-out: TGI
NCI-H2228 [13] = test: Antitumor activity against human NCI-H2228 cells xenografted in NOD.CB17-Prkdcscid/J mouse assessed as tumor growth inhibition at 30 mg/kg, po administered once daily for 2 weeks relative to control; type: functional; details: NCI-H2228, 336 h, read-out: TGI
[14] = Cmax in human NCI-H2228 cell xenografted NOD.CB17-Prkdcscid/J mouse plasma at 1 mg/kg/day for 5 days by HPLC-MS analysis; type: ADME, organism-based; details: route po, time 5 day
[15] = Cmax in human NCI-H2228 cell xenografted NOD.CB17-Prkdcscid/J mouse plasma at 10 mg/kg/day for 5 days by HPLC-MS analysis; type: ADME, organism-based; details: route po, time 5 day
[16] = AUC (0 to 24 hrs) in human NCI-H2228 cell xenografted NOD.CB17-Prkdcscid/J mouse plasma at 1 mg/kg/day for 5 days by HPLC-MS analysis; type: ADME, organism-based; details: route po, time 5 day
[17] = Cmax in human NCI-H2228 cell xenografted NOD.CB17-Prkdcscid/J mouse tumor at 1 mg/kg/day for 5 days by HPLC-MS analysis; type: ADME, organism-based, Neoplasm; details: route po, time 5 day
[18] = Cmax in human NCI-H2228 cell xenografted NOD.CB17-Prkdcscid/J mouse tumor at 3 mg/kg/day for 5 days by HPLC-MS analysis; type: ADME, organism-based, Neoplasm; details: route po, time 5 day
[19] = Cmax in human NCI-H2228 cell xenografted NOD.CB17-Prkdcscid/J mouse tumor at 10 mg/kg/day for 5 days by HPLC-MS analysis; type: ADME, organism-based, Neoplasm; details: route po, time 5 day
[20] = Tmax in human NCI-H2228 cell xenografted NOD.CB17-Prkdcscid/J mouse tumor at 1 mg/kg/day for 5 days by HPLC-MS analysis; type: ADME, organism-based, Neoplasm; details: route po, time 5 day
[21] = Tmax in human NCI-H2228 cell xenografted NOD.CB17-Prkdcscid/J mouse tumor at 3 mg/kg/day for 5 days by HPLC-MS analysis; type: ADME, organism-based, Neoplasm; details: route po, time 5 day
[22] = Ratio of Cmax in human NCI-H2228 cell xenografted NOD.CB17-Prkdcscid/J mouse tumor to plasma at 1 mg/kg/day for 5 days by HPLC-MS analysis; type: ADME, organism-based; details: tumor and plasma, route po, time 5 day
Mus musculus = test: Antitumor activity against hEML4-ALK transgenic C57BL/6J mouse assessed as reduction in pulmonary tumor size at 30 to 100 mg/kg, po administered daily for 10 days and measured on day 7 and 11 by computed tomography scan analysis; type: functional, organism-based; details: dose 30-100 mg/kg, time 7-11 day
[23] = Toxicity in human NCI-H2228 cell xenografted NOD.CB17-Prkdcscid/J mouse assessed as change in body weight at 10 mg/kg, po administered once daily for 5 days in presence of paclitaxel; type: organism-based; details: in vivo, 120 h, time 5 day
[24] = Toxicity in human NCI-H2228 cell xenografted NOD.CB17-Prkdcscid/J mouse assessed as change in body weight at 10 mg/kg, po administered once daily for 5 days in presence of pemetrexed; type: organism-based; details: in vivo, 120 h, time 5 day
NCI-H2228 [25] = test: Potentiation of carboplatin-induced antitumor activity against human NCI-H2228 cells xenografted in NOD.CB17-Prkdcscid/J mouse assessed as reduction in tumor volume at 10 mg/kg, po administered once daily for 5 days; type: functional, organism-based; details: time 5.0 day
[26] = Selectivity ratio of IC50 for EML4-ALK L1196M mutant (unknown origin) transformed in mouse BaF3 cells to IC50 for EML4-ALK (unknown origin) transformed in mouse BaF3 cells; parameters: species or system Homo sapiens; details: condition non-small cell lung carcinoma
Activated CDC42 kinase 1 = Activated CDC42 kinase 1 (Homo sapiens, UniProt Q07912)
[27] = target: Tyrosine-protein kinase receptor UFO (Homo sapiens, UniProt P30530)
[28] = target: Epidermal growth factor receptor (Homo sapiens, UniProt P00533, L858R)
Ephrin type-A receptor 2 = Ephrin type-A receptor 2 (Homo sapiens, UniProt P29317)
Ephrin type-A receptor 6 = Ephrin type-A receptor 6 (Homo sapiens, UniProt Q9UF33)
[29] = target: Tyrosine-protein kinase FRK (Homo sapiens, UniProt P42685)
[30] = target: Leukocyte tyrosine kinase receptor (Homo sapiens, UniProt P29376)
[31] = target: Tyrosine-protein kinase Mer (Homo sapiens, UniProt Q12866)

Leukocyte tyrosine kinase receptor, sequence (P29376 whole entry): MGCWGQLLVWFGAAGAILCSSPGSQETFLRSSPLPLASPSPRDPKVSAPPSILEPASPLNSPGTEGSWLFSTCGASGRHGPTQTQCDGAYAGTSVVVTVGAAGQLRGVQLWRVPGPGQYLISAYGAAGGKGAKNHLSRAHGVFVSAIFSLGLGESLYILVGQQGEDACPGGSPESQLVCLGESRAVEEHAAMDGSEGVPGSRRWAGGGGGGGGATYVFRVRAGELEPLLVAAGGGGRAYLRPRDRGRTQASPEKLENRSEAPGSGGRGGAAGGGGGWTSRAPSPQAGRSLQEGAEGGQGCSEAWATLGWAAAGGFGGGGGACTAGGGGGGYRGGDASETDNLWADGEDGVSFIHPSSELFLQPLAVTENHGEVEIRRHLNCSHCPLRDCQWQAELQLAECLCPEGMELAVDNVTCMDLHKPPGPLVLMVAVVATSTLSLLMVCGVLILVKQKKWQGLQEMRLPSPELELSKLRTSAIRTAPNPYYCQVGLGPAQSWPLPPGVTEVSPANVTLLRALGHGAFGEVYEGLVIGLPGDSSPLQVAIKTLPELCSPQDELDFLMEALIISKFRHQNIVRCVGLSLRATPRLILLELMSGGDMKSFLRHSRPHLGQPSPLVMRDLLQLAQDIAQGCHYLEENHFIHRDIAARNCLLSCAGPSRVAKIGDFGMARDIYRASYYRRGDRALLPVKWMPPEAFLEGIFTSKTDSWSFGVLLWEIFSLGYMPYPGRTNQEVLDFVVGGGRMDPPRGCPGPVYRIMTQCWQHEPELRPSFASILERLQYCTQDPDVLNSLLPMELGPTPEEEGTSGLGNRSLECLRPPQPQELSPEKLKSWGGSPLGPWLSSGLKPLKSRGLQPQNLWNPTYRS
Tyrosine-protein kinase receptor UFO, sequence (P30530 whole entry): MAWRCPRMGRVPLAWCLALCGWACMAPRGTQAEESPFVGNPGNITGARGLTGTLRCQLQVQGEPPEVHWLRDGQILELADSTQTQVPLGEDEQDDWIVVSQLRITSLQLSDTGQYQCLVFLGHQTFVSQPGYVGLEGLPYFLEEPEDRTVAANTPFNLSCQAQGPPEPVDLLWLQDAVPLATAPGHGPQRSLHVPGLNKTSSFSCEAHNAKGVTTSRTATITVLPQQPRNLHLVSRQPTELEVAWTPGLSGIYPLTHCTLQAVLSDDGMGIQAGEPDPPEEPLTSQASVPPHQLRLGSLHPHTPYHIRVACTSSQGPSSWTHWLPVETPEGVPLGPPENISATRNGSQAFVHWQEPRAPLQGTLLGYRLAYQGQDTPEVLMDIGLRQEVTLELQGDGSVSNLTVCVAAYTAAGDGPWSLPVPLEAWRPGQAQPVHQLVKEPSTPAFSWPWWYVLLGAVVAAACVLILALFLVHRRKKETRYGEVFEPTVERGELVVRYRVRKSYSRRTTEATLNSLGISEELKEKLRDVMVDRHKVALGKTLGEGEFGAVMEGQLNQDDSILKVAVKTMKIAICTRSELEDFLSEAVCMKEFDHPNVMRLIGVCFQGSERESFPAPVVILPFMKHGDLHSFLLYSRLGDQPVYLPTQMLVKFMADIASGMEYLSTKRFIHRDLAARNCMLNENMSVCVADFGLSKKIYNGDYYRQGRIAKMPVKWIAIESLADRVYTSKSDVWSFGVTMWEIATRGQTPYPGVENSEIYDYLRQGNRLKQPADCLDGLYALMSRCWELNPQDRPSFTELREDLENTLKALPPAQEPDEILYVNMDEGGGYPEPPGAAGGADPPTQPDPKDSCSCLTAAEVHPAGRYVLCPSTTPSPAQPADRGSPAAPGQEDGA
Activated CDC42 kinase 1, sequence (Q07912 whole entry): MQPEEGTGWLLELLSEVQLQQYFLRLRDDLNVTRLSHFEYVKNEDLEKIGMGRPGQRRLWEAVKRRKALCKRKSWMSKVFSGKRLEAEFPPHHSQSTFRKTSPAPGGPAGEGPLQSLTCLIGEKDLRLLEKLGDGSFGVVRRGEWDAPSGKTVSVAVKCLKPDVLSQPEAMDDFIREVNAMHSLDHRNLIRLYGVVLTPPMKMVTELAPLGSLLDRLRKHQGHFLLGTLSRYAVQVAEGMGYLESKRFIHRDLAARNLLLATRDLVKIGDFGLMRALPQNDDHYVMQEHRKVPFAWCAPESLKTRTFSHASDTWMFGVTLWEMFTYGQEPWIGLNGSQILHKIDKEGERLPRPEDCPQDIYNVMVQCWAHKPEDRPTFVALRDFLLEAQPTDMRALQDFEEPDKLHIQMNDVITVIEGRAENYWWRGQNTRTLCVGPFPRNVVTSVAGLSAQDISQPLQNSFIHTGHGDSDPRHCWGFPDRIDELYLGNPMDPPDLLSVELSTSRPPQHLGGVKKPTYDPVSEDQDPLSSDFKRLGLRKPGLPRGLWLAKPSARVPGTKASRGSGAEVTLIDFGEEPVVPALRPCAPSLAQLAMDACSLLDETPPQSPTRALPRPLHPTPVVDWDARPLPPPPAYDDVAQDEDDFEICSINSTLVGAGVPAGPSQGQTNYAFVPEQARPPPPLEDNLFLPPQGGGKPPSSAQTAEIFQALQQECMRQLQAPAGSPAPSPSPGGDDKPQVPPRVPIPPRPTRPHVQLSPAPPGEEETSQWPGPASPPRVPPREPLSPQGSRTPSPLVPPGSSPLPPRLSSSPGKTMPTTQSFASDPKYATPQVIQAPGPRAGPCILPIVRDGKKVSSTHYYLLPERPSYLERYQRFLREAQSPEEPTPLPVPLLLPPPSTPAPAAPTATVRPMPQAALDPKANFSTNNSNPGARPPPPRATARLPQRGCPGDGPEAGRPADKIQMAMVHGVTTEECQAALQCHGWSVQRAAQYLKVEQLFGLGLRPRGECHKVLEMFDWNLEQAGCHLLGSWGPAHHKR
Tyrosine-protein kinase FRK, sequence (P42685 whole entry): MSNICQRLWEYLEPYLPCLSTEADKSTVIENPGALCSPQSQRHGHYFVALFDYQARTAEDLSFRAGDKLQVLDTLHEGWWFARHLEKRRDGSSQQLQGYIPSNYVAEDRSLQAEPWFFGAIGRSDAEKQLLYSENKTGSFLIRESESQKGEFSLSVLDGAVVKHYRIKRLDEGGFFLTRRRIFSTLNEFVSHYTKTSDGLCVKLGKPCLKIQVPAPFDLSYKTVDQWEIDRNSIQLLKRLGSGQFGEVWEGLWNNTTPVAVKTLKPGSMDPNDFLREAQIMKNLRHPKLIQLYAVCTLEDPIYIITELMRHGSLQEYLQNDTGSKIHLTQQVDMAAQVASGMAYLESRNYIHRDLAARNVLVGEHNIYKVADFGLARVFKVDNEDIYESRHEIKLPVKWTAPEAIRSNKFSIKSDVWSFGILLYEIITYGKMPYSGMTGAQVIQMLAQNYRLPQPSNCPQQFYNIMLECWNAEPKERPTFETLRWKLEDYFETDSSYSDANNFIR

COc1cc(N2CCC(N3CCN(C)CC3)CC2)ccc1Nc1ncnc(Nc2ccccc2S(=O)(=O)C(C)C)n1 [ASP-3026]
Activity [1]: 70% | Activity [2]: 9% | Activity [3]: 56% | Activity [4]: 101% | Activity [5]: 54% | Activity [6]: 88% | Activity [7]: 52% | IC50 [8]: 3.5 nM | IC50 [9]: 10 nM | IC50 [10]: 5.4 nM | Activity [11]: ~20% | inhibition in vivo at 1 mg/kg (NCI-H2228 [12]): 69% | inhibition in vivo at 30 mg/kg (NCI-H2228 [13]): > 100% | Cmax [14]: 44.3 ng/mL | Cmax [15]: 508 ng/mL | AUC at 120 h [16]: 630 ng·h/mL | Cmax [17]: 850 ng/g | Cmax [18]: 2270 ng/g | Cmax [19]: 8990 ng/g | Tmax [20]: 4 h | Tmax [21]: 4 h | Kp at 120 h [22]: 19 | Activity (Mus musculus): Active | Activity [23]: Non-Toxic | Activity [24]: Non-Toxic | Activity (NCI-H2228 [25]): inactive | Ratio IC50 [26]: 3.2 | IC50 (Activated CDC42 kinase 1): 5.8 nM | IC50 [27]: > 100 nM | IC50 [28]: 86 nM | IC50 (Ephrin type-A receptor 2): > 1000 nM | IC50 (Ephrin type-A receptor 6): > 1000 nM | IC50 [29]: 40 nM | IC50 [30]: 61 nM | IC50 [31]: > 1000 nM
